Source: US5118690A, “Pharmaceutical tetrahydroisoquinolines” (John Wyeth & Brother Limited, priority 1989, dated 1992)

Assays:
GABA autoreceptor [1] = assay: antagonist activity at GABA autoreceptors by blockade of agonist (muscimol)-induced inhibition of potassium-evoked [3H]-GABA release from rat cortex slices in vitro (Procedure 1); type: biochemical; conditions: for Antagonism at GABA autoreceptor pA2 values: Procedure 1, agonist muscimol, rat cerebral cortex slices; for IC50: inhibition of the effect of a single concentration of muscimol, read-out: IC50 value (GABA autoreceptor antagonism)
Text: (§1) Advantageously compounds of formula I appear to be selective in that they display little or no activity at GABAA receptors. The following test procedures were used to measure antagonist activity at (a) GABA autoreceptors by blockade of agonist-induced inhibition of potassium-evoked GABA release from rat cortex in vitro (Procedure 1); and (b) GABAA receptors by antagonism of agonist-induced depolarization of the isolated rat vagus nerve (Procedure 2):
Slices (0.25×0.25×2.0 mm) of rat cerebral cortex are prepared using a McIlwain tissue chopper. The slices are incubated in Krebs-Henseleit solution containing [^3 H]-GABA (10^-7 M) in the presence of amino-oxyacetic acid (AOAA) for 20 minutes at 37° C., rinsed with 5ml aliquots of Krebs-Henseleit solution and transferred to 10 superfusion chambers (volume 300μl). The slices are continuously superfused with Krebs-Henseleit solution (0.4 ml min^-1) containing AOAA (10^-5 M) and fractions of the superfusate collected every 4 minutes. Transmitter release is induced by 4 minute exposure to a Krebs-Henseleit solution containing 25 mM potassium ion (with concomitant reduction in sodium to maintain osmolarity) after 68 […] and 92 (S2) minutes of superfusion. The antagonist compound under study is added to the superfusing medium 10 minutes prior to the first potassium stimulation and remains throughout the superfusion. The GABA autoreceptor is activated by adding the agonist muscimol 20 minutes before the second potassium stimulation. The residual radioactivity in the slices at the end of the experiment together with that in the superfusate. fractions is measured by liquid scintillation counting
Calculations: The amount of radioactivity in each fraction is expressed as a percentage of the total radioactivity in the tissue at the start of the respective collection period. The amount of radioactivity released above basal by the increased potassium is calculated and the ratio S2/S1 obtained. The S2/S1 ratio from muscimol-treated slices is expressed as a percentage of the control drug-free S2/S1 ratio. A dose-response curve for the agonist muscimol is constructed and the effect of antagonists is measured by their ability to displace this dose-response curve to the right. From this measurement a pA2 value can be calculated. Alternatively, an IC50 value for antagonists can be calculated by inhibiting the effect of a single concentration of muscimol with increasing concentrations of antagonist.

GABAA receptor [2] = assay: antagonism at GABAA receptors: antagonism of GABA-induced depolarization of the isolated rat vagus nerve (Procedure 2); type: biochemical
Text: as §1
Male Sprague-Dawley rats (250-400g) are killed by a blow to the head and cervical dislocation. The cervical vagus nerves are transferred into Krebs' solution at room temperature and the connective tissue sheath removed. The vagus nerves are placed in two-compartment Perspex baths to permit extracellular recording of agonist induced depolarizations. Each nerve projects from one compartment to the next by way of a grease filled slot, the grease serving to insulate the compartments from each other. […] One compartment is continuously perfused (5ml min^-1) with Krebs' solution at 27° C. to which agonist and antagonist drugs are added. […] Non-cumulative concentration-response curves to GABA (10^-6 to 3×10^-4 M) are obtained using a 5 min contact time and 10-20 min wash period and the effect of the test antagonist compound is measured by its ability to shift this concentration-response curve to the right.

GABA autoreceptor [3] = conditions: previously shown; cited from earlier work
GABAA receptor [4] = conditions: non-selective; cited from earlier work
[5] = known; cited from earlier work

| Molecule | Antagonism at GABA autoreceptor pA2 values (GABA autoreceptor [1]) | IC50 (GABA autoreceptor [1]) [nM] | also measured |
| --- | --- | --- | --- |
| COc1cc2c(cc1OC)[C@H]([C@@H]1CCCO1)NCC2 (relative stereo) [A, 1RS,2'SR-1-(2-Tetrahydrofuranyl)-1,2,3,4-tetrahydro-6,7 dimethoxyisoquinoline] | 7.0 |  | Antagonism at GABAA receptors (GABAA receptor [2]; at 10^-4 M): inactive |
| c1ccc2c(c1)CCN[C@H]2[C@@H]1CCCO1 (single isomer, unassigned) [(+) isomer of Compound C] |  | 8600 |  |
| CN1CCc2ccccc2[C@@H]1[C@@H]1CCCO1 (single isomer, unassigned) [(-) isomer of Compound D, (-) 1R*,2'S*-1-(2-tetrahydrofuranyl)-2-methyl-1,2,3,4-tetrahydroisoquinoline] |  | 260 |  |
| CN1CCc2cc3c(cc2[C@H]1[C@@H]1OC(=O)c2c1ccc1c2OCO1)OCO3 [bicuculline] |  |  | activity at GABA autoreceptor (GABA autoreceptor [3]): antagonists at the GABA autoreceptor; activity at GABAA receptor (GABAA receptor [4]): also active at the GABAA receptor; convulsant action [5]: known convulsants |
| picrotoxin |  |  | activity at GABA autoreceptor (GABA autoreceptor [3]): antagonists at the GABA autoreceptor; activity at GABAA receptor (GABAA receptor [4]): also active at the GABAA receptor; convulsant action [5]: known convulsants |

Now from value to molecule, other results behind:

| Antagonism at GABA autoreceptor pA2 values (GABA autoreceptor [1]) | IC50 (GABA autoreceptor [1]) [nM] | Molecule | also measured |
| --- | --- | --- | --- |
| 8.4 |  | c1csc(C2NCCc3ccccc32)c1 (racemic) [E, 1,2,3,4-Tetrahydro-1-(2-thienyl)isoquinoline] |  |
| 5.2 |  | COc1cc2c(cc1OC)[C@H]([C@H]1CCCO1)NCC2 (relative stereo) [B, 1RS,2'RS-1-(2-Tetrahydrofuranyl) -1,2,3,4- Tetrahydro-6,7-dimethoxyisoquinoline] |  |
| 8.5 |  | c1ccc2c(c1)CCN[C@H]2[C@@H]1CCCO1 (relative stereo) [Compound C, 1RS, 2'SR-1-(2-Tetrahydrofuranyl)-1,2,3,4-tetrahydroisoquinoline] |  |
| 9.2 |  | CN1CCc2ccccc2[C@@H]1[C@@H]1CCCO1 (relative stereo) [Compound D, 1RS, 2'SR-1-(2-Tetrahydrofuranyl)-2-methyl-1,2,3,4-tetrahydroisoquinoline] | Antagonism at GABAA receptors (GABAA receptor [2]; at 10^-5 M): inactive |
|  | 2.7 | CN1CCc2ccccc2[C@@H]1[C@@H]1CCCO1 (single isomer, unassigned) [(+) isomer of Compound D, (+)1R*,2'S*-1-(2-tetrahydrofuranyl)-2-methyl-1,2,3,4-tetrahydroisoquinoline] |  |
|  | 20 | c1ccc2c(c1)CCN[C@H]2[C@@H]1CCCO1 (single isomer, unassigned) [(-) enantiomer of Compound C] |  |
|  | 480 | Oc1ccc(C2NCCc3cc(O)c(O)cc32)cc1 (stereo not drawn) [Example 12, 1-(4-Hydroxyphenyl)-6,7-dihydroxy-1,2,3,4-tetrahydroisoquinoline] |  |
